# Assay results taken from paper PMC4770093, “The role of kinetic context in apparent biased agonism at GPCRs” (Nature Communications, 2016).
# Legend:
# [1] = target: SNAP-tagged human dopamine D2L (Homo sapiens, UniProt P14416); assay: Tag-lite PPHT-red competition kinetic binding (HTRF); details: SNAP-D2LR-CHO membranes; 100 μM Gpp(NH)p; 37 °C
# Description: To terbium label the SNAP-CHO-D2L cells, cell culture medium was removed from the T175 cm^2 flasks containing confluent adherent SNAP-CHO-D2L cells. Twelve millilitres of Tag-lite labelling medium containing 100 nM of SNAP-Lumi4-Tb was added to the flask and incubated for 1 h at 37 °C under 5% CO2. Cells were then washed 2 × in 15 ml PBS (GIBCO, Invitrogen, Paisley, UK) to remove the excess of SNAP-Lumi4-Tb and detached using 5 ml of enzyme-free Hank's-based cell dissociation buffer (GIBCO, Invitrogen, Paisley, UK) and collected in a vial containing 5 ml of DMEM/Nutrient F-12 Ham, 2 mM glutamine supplemented 10% FCS. Cells were pelleted by centrifugation (5 min at 1,500 r.p.m.) and the pellets were frozen to −80 °C before preparation of membranes.
# All subsequent steps described were conducted at 4 °C, to avoid receptor degradation. Twenty millilitres of wash buffer (10 mM HEPES and 10 mM EDTA pH 7.4) was added to the pellet of terbium-labelled cells (equivalent to 1 × t175 cm^2). […] The supernatant was discarded and the pellet was homogenized and centrifuged as described above in wash buffer. The final pellet was suspended in ice-cold 10 mM HEPES and 0.1 mM EDTA pH 7.4, at a concentration of 5–10 mg m^−1. Protein concentration was determined by the bicinchoninic acid assay using BSA as a standard and aliquots maintained at −80 °C until required. Before their use, the frozen membranes were thawed and the membranes suspended in the assay buffer at a membrane concentration of 0.1 mg m^−1.
# GppNHp was included to remove the G protein-coupled population of receptors that can result in two binding sites in membrane preparations, because the Motulsky–Mahan model is only appropriate for ligands competing at a single site. […] Both fluorescent ligands and unlabelled compounds were diluted in the binding assay buffer.
# Kinetics acquisitions at intervals of 20 s were recorded using the standard settings of the reader for HTRF measurements. […] Specific binding was determined by subtracting the nonspecific HTRF ratio from the total HTRF ratio.
# To accurately determine association rate (kon) and dissociation rate (koff) values, the observed rate of association (kob) was calculated using at least four different concentrations of PPHT-red. The appropriate concentration of PPHT-red was incubated in a 384-well Optiplate with human SNAP-D2LR-CHO cell membranes (2 μg per well) in assay binding buffer at 37 °C (final assay volume, 40 μl). The degree of PPHT-red bound to the receptor was assessed at multiple time points by HTRF detection, to allow construction of association kinetic curves. The resulting data were globally fitted to the association kinetic model (equation (8)) to derive a single best-fit estimate for kon and koff as described under ‘Data analysis'.
# On the same 384-well Optiplate plate, the kinetic parameters of unlabelled ligand were assessed using a competition kinetic binding assay. This approach involves the simultaneous addition of both fluorescent ligand and competitor to receptor preparation so that at t=0 all receptors are unoccupied. […] The degree of PPHT-red bound to the receptor was assessed at multiple time points by HTRF detection. Nonspecific binding was determined as the amount of HTRF signal detected in the presence of spiperone (1 μM) and was subtracted from each time point. Each time point was conducted on the same 384-well plate incubated at 37 °C with shaking (100 r.p.m.) after every cycle.
# Data were globally fitted using equation (7), to simultaneously calculate kon and koff.
# D2R = assay: Simulation of receptor occupancy over time from kon and koff; details: simulation with a KD concentration of each agonist
# Description: We extended these studies with a Tag-lite receptor binding assay using a D2R construct with an amino-terminal SNAP tag and the fluorescently labelled agonist (±)-4′-amino-2-(N-phenethyl-N-propyl)-amino-5-hydroxytetralin (PPHT). […] The association rate of a ligand is often thought to be diffusion limited. […] Using these kinetic parameters, we performed a simulation to estimate the receptor occupancy of a KD concentration of each agonist over time (Fig. 4e).
# Kinetic binding parameters of kon (a), koff (b) and t1/2 (c) were determined in a competition kinetic binding assay using a Tag-lite binding assay and the fluorescently labelled agonist PPHT as the tracer ligand (Supplementary Table 6). […] All values are expressed as mean±s.e.m. from three experiments. (e) The values of kon and koff obtained in the competition kinetic assay were used to simulate receptor occupancy over time using equation (9) and the concentration of ligand equivalent to its KD (see Supplementary Table 6).
# where Ymax reflects maximum binding of a concentration of ligand and kob is determined by equation (8).
# Chain of SNAP-tagged human dopamine D2L (P14416 whole entry): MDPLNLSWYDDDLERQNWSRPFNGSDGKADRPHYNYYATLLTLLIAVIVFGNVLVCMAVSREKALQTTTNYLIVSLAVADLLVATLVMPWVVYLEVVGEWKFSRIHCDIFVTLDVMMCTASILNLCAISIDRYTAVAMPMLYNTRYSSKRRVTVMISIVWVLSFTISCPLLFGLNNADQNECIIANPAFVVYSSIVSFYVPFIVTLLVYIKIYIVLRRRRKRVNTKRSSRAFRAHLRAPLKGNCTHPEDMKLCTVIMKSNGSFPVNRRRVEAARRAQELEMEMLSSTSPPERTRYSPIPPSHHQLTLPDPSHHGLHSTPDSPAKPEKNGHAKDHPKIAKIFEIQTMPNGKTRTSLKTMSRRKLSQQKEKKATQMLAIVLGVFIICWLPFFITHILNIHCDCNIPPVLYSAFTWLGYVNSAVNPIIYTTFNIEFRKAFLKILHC
SMILES,rate of dissociation of the fluorescent tracer [1] [min⁻¹],time to maximal receptor occupancy (D2R) [min]
"CCCN(CCc1ccc(N)cc1)C1CCc2c(O)cccc2C1 (racemic) [PPHT, (±)-4′-amino-2-(N-phenethyl-N-propyl)-amino-5-hydroxytetralin]",0.45,
"CN(C)C(=O)N[C@H]1CC[C@H](CCN2CCN(c3cccc(Cl)c3Cl)CC2)CC1 [Cariprazine, cariprazine]",,~10
"NCCc1ccc(O)c(O)c1 [Dopamine, dopamine]",,≤ 1
